“Also recorded” adds a separate entry of the source.
Columns and labels:
[1] = system: T1, interaction of Keap1 and Cul3; assay: Co-IP of Keap1 and Cul3 in 293T cells; type: cell-based, human
T1 construct: expressed in transfected cells; host or cells: 293T
Procedure: Alkylation of the BTB domain of Keap1 by covalent modifiers contributes to the disruption of the Keap1-Cul3 interactions, leading to Nrf2 activation. Next, we investigated the effect of PBA on the modulation of Nrf2 ubiquitination as Nrf2 stability is controlled by ubiquitin-mediated proteasomal degradation. First, 3X Flag-Keap1, Myc-Nrf2 and Ub plasmids were transfected into 293T cells and then, the cells were treated with 30 μM PBA for 20 h and 5 μM MG132 for another 4 h. Cell lysates were pulled down using anti-Myc beads, and immunopurified Nrf2 was examined for the occurrence of Ub by western blotting. […]
Figure 6 PBA suppresses Keap1-mediated ubiquitination of Nrf2 by disrupting the interaction between Cul3 and Keap1. […] The cell lysates were immunoprecipitated using anti-Myc beads, and the ubiquitination level was evaluated using the anti-Ub antibody. […] The cell lysates were immunoprecipitated with the anti-Flag antibody, and the level of Nrf2 was assessed using the anti-Nrf2 antibody. […] The cell lysates were immunoprecipitated with the anti-Flag antibody, and the level of Cul3 was measured using the anti-Cul3 antibody. #p < 0.05, ##p < 0.01, ###p < 0.001, the control vs DMSO; *p < 0.05,**p < 0.01, ***p < 0.001, PBA or tBHQ vs DMSO. […] Cell viability was measured by MTT assays. #p < 0.05, ###p < 0.001, the control vs OGD/R; **p < 0.01, ***p < 0.001, OGD/R+PBA vs OGD/R.

[2] = system: Keap1-dependent Nrf2 ubiquitination; assay: Keap1-dependent Nrf2 ubiquitination in 293T cells; type: cell-based, human
Procedure: Alkylation of the BTB domain of Keap1 by covalent modifiers contributes to the disruption of the Keap1-Cul3 interactions, leading to Nrf2 activation. Next, we investigated the effect of PBA on the modulation of Nrf2 ubiquitination as Nrf2 stability is controlled by ubiquitin-mediated proteasomal degradation. First, 3X Flag-Keap1, Myc-Nrf2 and Ub plasmids were transfected into 293T cells and then, the cells were treated with 30 μM PBA for 20 h and 5 μM MG132 for another 4 h. Cell lysates were pulled down using anti-Myc beads, and immunopurified Nrf2 was examined for the occurrence of Ub by western blotting. […] As shown in Figure 6E-F, PBA could disrupt the interaction of Keap1 and Cul3 in WT-Keap1 cells, while the disruption was blocked in the Cys77S and Cys434-Keap1 mutant cells.
(§1) Figure 6 PBA suppresses Keap1-mediated ubiquitination of Nrf2 by disrupting the interaction between Cul3 and Keap1. (A and B) PBA suppressed Nrf2 ubiquitination in a Keap1-Cys77 and C434-dependent manner. First, 293T cells were transfected with WT-Keap1 or C77S and C434S-Keap1, Myc-Nrf2, and Ub plasmids for 24 h and treated with 30 μM PBA. The cell lysates were immunoprecipitated using anti-Myc beads, and the ubiquitination level was evaluated using the anti-Ub antibody. (C and D) PBA induced the dissociation of the Nrf2-Keap1 complex. Then, 293T cells were cotransfected with WT-Keap1 and Flag-Nrf2 plasmids for 24 h and treated with 30 μM PBA for 12 h. The cell lysates were immunoprecipitated with the anti-Flag antibody, and the level of Nrf2 was assessed using the anti-Nrf2 antibody. (E and F) PBA disrupted the interaction between Cul3 and Keap1. […] The cell lysates were immunoprecipitated with the anti-Flag antibody, and the level of Cul3 was measured using the anti-Cul3 antibody. #p < 0.05, ##p < 0.01, ###p < 0.001, the control vs DMSO; *p < 0.05,**p < 0.01, ***p < 0.001, PBA or tBHQ vs DMSO. […] Cell viability was measured by MTT assays. #p < 0.05, ###p < 0.001, the control vs OGD/R; **p < 0.01, ***p < 0.001, OGD/R+PBA vs OGD/R.

[3] = system: primary neonatal mouse cardiomyocytes; assay: MTT cytotoxicity, primary cardiomyocytes; type: cell-based; conditions: under 240 μM, 48 h
Procedure: The heart was removed from the neonatal C57BL/6 mice and cut into 1 mm^3 pieces in ice […] buffer. The tissues were digested with the mixture of 0.125% trypsin (Gibco, 15090-046) and 0.1% type II collagenase (Gibco, 17101-015) 6 min at 37 °C for three times until the tissues were completely digested. The cells were harvested and seeded in a dish. After 90 min of incubation, the cell culture medium was collected and centrifuged. The centrifuged cardiomyocytes were harvested, seeded on 0.1 % gelatin-coated culture plates with DMEM containing 10% FBS and […] Brdu, and incubated in a 37°C incubator.
Cell viability was determined by MTT assays. PBA was prepared to a stock solution dissolved in dimethyl sulfoxide (DMSO). RAW264.7, H9c2 cells, primary mouse cardiomyocytes were treated with different doses of PBA, and DMSO only as control for 48 h for the toxicity. In addition, H9c2 cells or primary mouse cardiomyocytes were treated with the indicated doses of PBA, diazoxide as positive control, DMSO only as control, then cultured with or without OGD/R treatment. At the end of the experiments, MTT was added into each well at the concentration of 0.5 mg/ml, and incubated at 37 °C for 4 h. […] And the solution was measured at the absorbance of 490 nm by a spectrophotometer (Thermo Fisher Scientific, MA, USA). […]

[4] = system: T2, interaction between Keap1 and Nrf2; assay: Co-IP of Keap1 and Nrf2 in 293T cells; type: cell-based, human
T2 construct: expressed in transfected cells; host or cells: 293T
Procedure: Figure 6 PBA suppresses Keap1-mediated ubiquitination of Nrf2 by disrupting the interaction between Cul3 and Keap1. (A and B) PBA suppressed Nrf2 ubiquitination in a Keap1-Cys77 and C434-dependent manner. First, 293T cells were transfected with WT-Keap1 or C77S and C434S-Keap1, Myc-Nrf2, and Ub plasmids for 24 h and treated with 30 μM PBA. The cell lysates were immunoprecipitated using anti-Myc beads, and the ubiquitination level was evaluated using the anti-Ub antibody. (C and D) PBA induced the dissociation of the Nrf2-Keap1 complex. Then, 293T cells were cotransfected with WT-Keap1 and Flag-Nrf2 plasmids for 24 h and treated with 30 μM PBA for 12 h. The cell lysates were immunoprecipitated with the anti-Flag antibody, and the level of Nrf2 was assessed using the anti-Nrf2 antibody. (E and F) PBA disrupted the interaction between Cul3 and Keap1. The 293T cells were transfected with the WT-Keap1 or C77S-C434S-Keap1 plasmids for 24 h and treated with 30 μM PBA for 12 h. The cell lysates were immunoprecipitated with the anti-Flag antibody, and the level of Cul3 was measured using the anti-Cul3 antibody. #p < 0.05, ##p < 0.01, ###p < 0.001, the control vs DMSO; *p < 0.05,**p < 0.01, ***p < 0.001, PBA or tBHQ vs DMSO. […] Primary mouse cardiomyocytes were transfected with mouse WT-Keap1 or C77S and C434S-Keap1 mutant vectors. After 24 h, the cells were treated with the indicated doses of PBA and subjected to OGD conditions as described in the Method section for 3 h and under normal conditions for another 18 h. Cell viability was measured by MTT assays. #p < 0.05, ###p < 0.001, the control vs OGD/R; **p < 0.01, ***p < 0.001, OGD/R+PBA vs OGD/R.
To investigate the effect of PBA on the interaction of Keap1 and Nrf2, we transfected 293T cells with Flag-Keap1 and Myc-Nrf2 plasmids, and treated them with 30 μM PBA for 24 h. The protein expression of Nrf2 was measured by western blotting analysis followed by immunoprecipitation with Flag beads.

[5] = system: Nrf2 knockdown H9c2 cells; assay: OGD/R viability in Nrf2 siRNA knockdown H9c2; type: cell-based, rat; conditions: Nrf2 siRNA 24 h, H9c2, MTT
Procedure: (§2) Cell viability was determined by MTT assays. PBA was prepared to a stock solution dissolved in dimethyl sulfoxide (DMSO). RAW264.7, H9c2 cells, primary mouse cardiomyocytes were treated with different doses of PBA, and DMSO only as control for 48 h for the toxicity. In addition, H9c2 cells or primary mouse cardiomyocytes were treated with the indicated doses of PBA, diazoxide as positive control, DMSO only as control, then cultured with or without OGD/R treatment. At the end of the experiments, MTT was added into each well at the concentration of 0.5 mg/ml, and incubated at 37 °C for 4 h. After removal of the supernatant, 150 μL of DMSO was added to solubilize the formazan products. And the solution was measured at the absorbance of 490 nm by a spectrophotometer (Thermo Fisher Scientific, MA, USA). The results of the MTT assay in all groups were normalized to the control group with DMSO only treatment.
For transient transfection, HiPerFect Transfection Reagent (Qiagen, German) was used according to the manufacturer's instructions. Nrf2 siRNA (h) (sc-156128) and control siRNA-A (sc-37007) were bought from Santa Cruz Biotechnology. Briefly, H9c2 cells were seeded in 96-well plate at the density of 2x10^4 cells per well or 12-well plate at the density of 3x10^5 cells per well. According to preliminary results, transfection with siRNA for 24 h could get a better knockdown effect. […]

[6] = system: primary mouse cardiomyocytes transfected with C77S and C434S-Keap1; assay: OGD/R viability in Keap1-mutant-transfected primary cardiomyocytes; type: cell-based; conditions: Cys77S and Cys434S-Keap1 mutant vectors, MTT
Procedure: as §1
Cell viability was determined by MTT assays. […] And the solution was measured at the absorbance of 490 nm by a spectrophotometer (Thermo Fisher Scientific, MA, USA). […]

[7] = system: H9c2 cells; assay: MTT cytotoxicity, H9c2; type: cell-based, rat; conditions: under 240 μM, 48 h
Procedure: as §2

## C=C(COC(=O)C=Cc1ccc(O)c(O)c1)C(O)COC1OC(CO)C(O)C(O)C1O (stereo not shown) [PBA, pubescenoside A]
[1]; Cys77S and Cys434-Keap1 mutant cells
  disruption of Keap1 and Cul3 interaction in mutant cells: blocked
[1]; WT-Keap1 293T cells, 30 μM PBA 12 h
  interaction of Keap1 and Cul3 (Co-IP): could disrupt
[2]; WT Keap1, 30 μM PBA 20 h, 5 μM MG132 4 h
  Keap1-dependent Nrf2 ubiquitination: significantly suppressed
[2]; mutant Cys77S and Cys434S-Keap1 vectors
  protection of Nrf2 from ubiquitination with mutant Keap1: unable to protect Nrf2 from ubiquitination
[3]
  cell toxicity (MTT): did not exhibit any cell toxicity
[4]; Cys77S and Cys434S-Keap1 mutant vectors
  Keap1-Nrf2 complex with mutant Keap1 (Co-IP): unable to block
[4]; WT-Keap1, 30 μM PBA
  interaction between Keap1 and Nrf2 (Co-IP): significantly disturbed; also recorded: disrupted
[5]
  cardioprotection against OGD/R after Nrf2 knockdown: blocked
[6]
  protective effect against OGD/R injury with mutant Keap1: blocked the protective effect
[7]
  cell toxicity (MTT): did not exhibit any cell toxicity
